We go through five molecules from US20220133846A1, “NOVEL ANTIMICROBIAL COMPOUND AND USES THEREOF” (priority 2019, published 2022).

Values after ≈ are worked out from the molar mass of the structure shown. Values joined by “and” are separate entries in the source; they are usually repeats but may differ in a detail not shown here. Identical values can stand only once. Like-named read-outs stand apart in the source and are kept apart here.

The test system of experiment [1] is S. aureus NRS 384 (USA300-0114). Briefly: Murine neutropenic thigh infection model. It is filed as in vivo, mice. To be noted: 25 mg/kg, both studies.
In experiment [2] the test system is S. aureus (SA) and MRSA biofilms. It is filed as cell-based.
For experiment [3], the system named is broad spectrum of Gram-positive bacteria. To be noted: cited from earlier work.
In experiment [4] the test system is Acinetobacter baumannii.
The subject of the next experiment is Acinetobacter guillouiae. Briefly: MIC against clinical isolates (Christiana Hospital). As to conditions: clinical strain CH42, drug resistance N. It is filed as cell-based.
For another experiment, the system named is Acinetobacter septicus. The experiment is described as above. As to conditions: clinical strain CH44, drug resistance N. It is filed as cell-based.
Experiment [5] relates to Acinetobacter calcoaceticus. The experiment is described as above. It is filed as cell-based. As to conditions: clinical strain CH37, drug resistance N.
The next experiment has as its system Acinetobacter ursingii. The experiment is described as above. It counts as cell-based. As to conditions: clinical strain CH41, drug resistance N.
In a further experiment the test system is A. baumannii (CH-46). Briefly: Frequency of resistance (FoR) in vitro. It counts as cell-based.
The subject of another experiment is Acinetobacter modestus. As to the kind of experiment: MIC against clinical isolates (Christiana Hospital). It is filed as cell-based. As to conditions: clinical strain CH43, drug resistance N.
For experiment [6], the system named is Acinetobacter baumannii. Briefly: microbe, parasite or virus in culture.
For the next experiment, the system named is S. aureus. Briefly: Prevention of biofilm formation by pre-coating wells. It is filed as cell-based. To be noted: data not shown.

In the case of `CN[C@H](CC(C)C)C(=O)N[C@H]1C(=O)N[C@@H](CC(N)=O)C(=O)N[C@H]2C(=O)N[C@H]3C(=O)N[C@H](C(=O)N[C@H](C(=O)O)c4cc(O)cc(O)c4-c4cc3ccc4O)[C@H](O)c3ccc(c(Cl)c3)Oc3cc2cc(c3O[C@@H]2O[C@H](CO)[C@@H](O)[C@H](O)[C@H]2O[C@H]2C[C@](C)(N)[C@H](O)[C@H](C)O2)Oc2ccc(cc2Cl)[C@H]1O` [vancomycin, reference compound], in experiment [1], the “Bacterial load relative to pre-treatment levels” value is given as “reduced bacterial load to or below pre-treatment levels”. The “Effect on viability of pre-formed biofilm” value in experiment [2] is given as “not effective”.

With `C=C1NC(=O)CC[C@@H](C(=O)O)NC(=O)[C@H](NC(=O)[C@H](CCCCN)NC(=O)[C@@H](N)Cc2c[nH]c3ccccc23)CSC[C@@H](C(=O)N[C@@H]2C(=O)N3CCC[C@H]3C(=O)NCC(=O)N[C@H](C(=O)N[C@H](C(=O)N[C@@H]3C(=O)NCC(=O)N[C@@H](C)C(=O)N[C@@H](CC(C)C)C(=O)N[C@@H](CCC(N)=O)C(=O)N/C(=C/C)C(=O)N[C@H](C(=O)N[C@@H](Cc4ccccc4)C(=O)N[C@@H](CC(C)C)C(=O)N[C@@H](CCC(N)=O)C(=O)N[C@@H]4C(=O)N[C@@H](CC(C)C)C(=O)N[C@H]5C(=O)N[C@@H](CSC4C)C(=O)NC(=O)[C@H](CC(N)=O)N[C@H](C(=O)N[C@@H](CCCCN)C(=O)N[C@H](C(=O)NC(=C)C(=O)N[C@@H](CCCCN)C(=O)O)[C@@H](C)CC)CSC5C)CSC3C)C(C)C)CSC2C)N[C@@H](CC(C)C)C(=O)NC1=O` (some centres unmarked) [subtilin], in experiment [3], the Antimicrobial activity entry is recorded as “nanomolar range”.

As to Colistin, the MIC is 3.91 µg/mL and 5.86 µg/mL and 7.81 µg/mL against Acinetobacter baumannii [4]; 3.91 µg/mL against Acinetobacter guillouiae; 1.95 µg/mL against Acinetobacter septicus; 3.91 µg/mL in [5]; 1.95 µg/mL with Acinetobacter ursingii; 7.81 µg/mL against Acinetobacter modestus. The “Frequency of resistance (FoR)” value with A. baumannii (CH-46) (2X MIC) is reported as 2.7 × 10^−7; in the experiment with A. baumannii (CH-46) (3X MIC), 3.7 × 10^−8; with A. baumannii (CH-46) (4X MIC), 5.2 × 10^−8; with A. baumannii (CH-46) (5X MIC) it was 5.4 × 10^−8; with A. baumannii (CH-46) (10X MIC), 2.0 × 10^−9.

With `C[C@@H](O)[C@H]1C(=O)N2C(C(=O)O)=C(SCCN=CN)C[C@H]12` [Imipenem], the MIC was 7.81 µg/mL (≈ 26.1 µM) in the experiment on Acinetobacter guillouiae (Acinetobacter guillouiae, read-out: MIC); 1.46 µg/mL (≈ 4.88 µM) in the experiment with Acinetobacter septicus (Acinetobacter septicus, read-out: MIC); 0.5 µg/mL (≈ 1.67 µM) in experiment [5] (Acinetobacter calcoaceticus, read-out: MIC); 1 µg/mL (≈ 3.34 µM) with Acinetobacter ursingii (Acinetobacter ursingii, read-out: MIC); 250 µg/mL (≈ 835 µM) against Acinetobacter baumannii [6] (clinical strain CH36, drug resistance N); 125 µg/mL (≈ 418 µM) against Acinetobacter baumannii [6] (clinical strain CH38, drug resistance N). Further, the MIC in the experiment on Acinetobacter baumannii [6] (clinical strain CH39, drug resistance N) was found to be 15.6 µg/mL (≈ 52.2 µM); in the experiment on Acinetobacter baumannii [6] (clinical strain CH40, drug resistance N), 31.2 µg/mL (≈ 104 µM); against Acinetobacter baumannii [6] (clinical strain CH45, drug resistance Y), 125 µg/mL (≈ 418 µM); in the experiment on Acinetobacter baumannii [6] (clinical strain CH46, drug resistance Y), 250 µg/mL (≈ 835 µM); in the experiment on Acinetobacter baumannii [6] (clinical strain CH47, drug resistance Y) it was 3.91 µg/mL (≈ 13.1 µM); with Acinetobacter baumannii [6] (clinical strain CH48, drug resistance Y), 7.81 µg/mL (≈ 26.1 µM). Further, the MIC amounted to 62.5 µg/mL (≈ 209 µM) against Acinetobacter baumannii [6] (clinical strain CH49, drug resistance Y); 62.5 µg/mL (≈ 209 µM) in the experiment with Acinetobacter baumannii [6] (clinical strain CH50, drug resistance Y); 31.2 µg/mL (≈ 104 µM) against Acinetobacter baumannii [6] (clinical strain CH51, drug resistance Y); 31.2 µg/mL (≈ 104 µM) in the experiment on Acinetobacter baumannii [6] (clinical strain CH52, drug resistance Y); 31.2 µg/mL (≈ 104 µM) against Acinetobacter baumannii [6] (clinical strain CH53, drug resistance Y); 7.81 µg/mL (≈ 26.1 µM) against Acinetobacter baumannii [6] (clinical strain CH54, drug resistance Y). The MIC stood at 46.9 µg/mL (≈ 157 µM) in the experiment with Acinetobacter baumannii [6] (clinical strain CH55, drug resistance Y) and 0.5 µg/mL (≈ 1.67 µM) in the experiment on Acinetobacter modestus (Acinetobacter modestus, read-out: MIC).

B1: platelet factor 4: a control cationic peptide (protein, UniProt P02776 32-101, looked up)
Platelet factor 4: EAEEDGDLQCLCVKTTSQVRPRHITSLEVIKAGPHCPTAQLIATLKNGRKICLDLQAPLYKKIIKKLLES
Turning to B1, in the experiment on S. aureus, the “Effect of coating wells on S. aureus attachment” value is “no effect”.
